# Earlier results as cited in patent US20200085783A1 (priority 2013, published 2020).
# pIC50: −log10 of the molar value.
# How the values were obtained:
# [1] = biological target: NaK pump (Rattus norvegicus, UniProt P06685)
# [2] = read-out: in vitro IC50 growth inhibitory effects
SMILES,decrease in sensitivity of rodent compared to human cells [1],pIC50 [2]
C[C@@H]1C[C@@]2(NC(=O)CS2)[C@]2(O)O[C@@H]3C[C@@]4(CO)[C@@H](CC[C@@H]5[C@@H]4CC[C@]4(C)[C@@H](C6=CC(=O)OC6)CC[C@]54O)C[C@H]3O[C@@H]2O1 [UNBS1450],100-1000 times,
C[C@@H]1O[C@@H](O[C@H]2C[C@@H](O)[C@]3(CO)[C@H]4[C@H](O)C[C@]5(C)[C@@H](C6=CC(=O)OC6)CC[C@]5(O)[C@@H]4CC[C@]3(O)C2)[C@H](O)[C@H](O)[C@H]1O [ouabain],,7.00 to 8.00
